Columns and labels:
Format in all cases: cell-based, human
PT45-P1res cells = experiment: Caspase-3/-7 assay in PT45-P1res cells; conditions: for apoptosis induction after etoposide treatment (caspase-3/-7): inhibitor 10 μmol/L, 20 μg/mL etoposide 24 hours
Description: (a) PT45-P1 res cells were transfected with control siRNA or with two L1CAM specific siRNAs. Western blotting for the detection of full-length L1CAM or of HSP90 as a control for equal protein load was performed (upper panel). In parallel, siRNA transfected PT45-P1res cells were treated with 20 μg/mL etoposide or not for 24 hours and caspase-3/-7 activity was determined. (b) siRNA transfected PT45-P1res cells were subjected to L1CAM immunostaining (L1-11A antibody) or staining with an isotype matched control antibody followed by flow cytometry. One representative histogram is shown. (c) siRNA transfected PT45-P1res cells were analysed by western blotting for the detection of full-length L1 CAM, αv-integrin or HSP90 (d) After overnight siRNA transfection, cells were either left untreated or were either treated with 20 μg/mL etoposide or with 5 μg/mL gemcitabine for 24 hours, followed by either AnnexinV/PI staining and flow cytometry (AnnexinV positive cells over basal) or by caspase-3/-7 assay (n-fold induced caspase-3/-7 activity of basal). (e) PT45-P1res cells were either left untreated (w/o) or were treated with 20 μg/mL etoposide in the absence (w/o) or presence of either 5 μg/mL anti L1CAM antibody (Clone L1-11A) or 5 μg/mL isotype matched control antibody. After 24 hours, cells were analysed by AnnexinV/PI staining or by caspase-3/-7 assay. Means±SD from three independent experiments are shown. * indicates p<0.05.
(§1) As described elsewhere (Sebens Müerköster et al., 2006), apoptosis was determined by staining with annexinV/propidium iodide (Biocarta, Hamburg, Germany) and subsequent fluorescence flow cytometry (GalaxyArgon Plus; DAKO Cytomation, Hamburg, Germany) using the FLOMAX software, and by the detection of caspase-3/-7 activity using a homogeneous luminescent assay (Promega, Mannheim, Germany). All samples were measured in duplicates.
(§2) For L1CAM transfection, PT45-P1 cells were seeded into 6 well plates (2×10^5 cells/well), were grown overnight, followed by transfection with 5 μL/well DIMRIE reagent (Invitrogen) and 0.6 μg/well of the following plasmids: pcDNA3.1 (mock) or pcDNA3.1-L1CAM (L1CAM). Upon transfection for 18 hours, 1 mL medium containing 20% FCS was added and cells were left untreated or were treated as indicated for further 24 hours. For knock down of L1CAM, PT45-P1res cells were seeded into 12 well plates (1×10^5 cells/well), were grown overnight followed by transfection with 12 μL/well RNAiFect reagent (Invitrogen) and 2 μg/well of either Stealth negative control siRNA (Invitrogen) or Stealth L1CAM siRNA (Invitrogen). After overnight transfection, cells were either left untreated or treated as indicated for further 24 hours.

L1CAM [1] = experiment: L1CAM expression in PT45-P1res cells (western blotting, flow cytometry, real-time PCR); conditions: for L1CAM expression (full-length 220 kDa and 32 kD fragment): inhibitor 10 μmol/L, 24 hours
Description: After washing in PBS, cells grown in 6-well culture plates were detached with 5 mmol/L EDTA in PBS and then washed with PBS once again. Blocking was conducted in 1% BSA/PBS for 60 min. at room temperature followed by incubation with the anti L1CAM antibody L1-11A or an isotype matched control antibody (1:1000, in 1% BSA/PBS) at 4° C. overnight. Then, cells were washed three times in PBS followed by incubation (60 min, 37° C.) with a goat-anti mouse antibody conjugated with Alexa flour 488 (Dianova, Hamburg, Germany) diluted 1:500 in 1% BSA/PBS. After washing in PBS, cells were resuspended in 500 μL PBS and analysed by fluorescence flow cytometry.
(§3) Cells were seeded into 6 well and 12 well plates, respectively, and transfected or treated as indicated. Then, cells were washed once with PBS and lysed with 1 volume of 2×SDS sample buffer (128 mmol/L Tris-Base, 4.6% SDS, 10% glycerol). Samples were heated for 5 minutes at 95° C. and put on ice for 2 minutes. Protein concentrations were determined using the Dc Protein assay (BioRad). Ten μg of protein adjusted to an appropriate volume of SDS sample buffer containing 0.2 mg/mL bromphenolblue (Serva, Heidelberg, Germany) and 2.5% β-mercaptoethanol (Biomol, Hamburg, Germany) were submitted to electrophoresis on a 4-20% ProGel-Tris-glycin-gel (Anamed, Darmstadt, Germany) and immunoblotting was performed as described previously (Arlt et al, 2001). For detection of L1CAM, a monoclonal antibody (clone UJ127 from Acris Antibodies) was diluted at a concentration of 0.4 μg/mL in 5% nonfat milk powder and 0.05% Tween in TBS (blotto) and incubated overnight at 4° C. For detection of the cytoplasmic domain of L1CAM, the pcytL1 antibody (Mechtersheimer et al., 2001) was used at a concentration of 1 μg/mL in blotto and incubated overnight at 4° C. As control of equal protein load, a polyclonal rabbit antibody for HSP90 (Santa Cruz, Heidelberg, Germany) was diluted 1:2000 in blotto. The mouse anti CD51 antibody from Beckman Coulter GmbH (Krefeld, Germany) was used at a concentration of 1:500 in blotto for detection of human αv integrin. Incubation with the primary antibodies was performed overnight at 4° C. For detection of the primary antibodies, anti-mouse and anti-rabbit HRP-linked antibodies (Cell Signaling), respectively, were used at a dilution of 1:2000 in blotto-TBST at room temperature for 1 hour. After washing in TBST, blots were developed using the LumiGlo peroxidase detection kit (Cell Signaling).
2 μg of total RNA were reverse-transcribed into single-stranded cDNA, as described previously (Schafer et al., 1999). Two μL of cDNA and 0.2 μmol/L gene-specific primers were adjusted with RNAse-free water to a volume of 15 μL. To this mixture, 15 μL of iQ SYBR Green Supermix (BioRad) were added. Primers for the detection of L1CAM (Gavert et al., 2005) were used under the following conditions: 95° C./1 min; 95° C./1 min, 52° C./30 see, 72° C./30 see for 40 cycles; 72° C./10 min. Primers for the detection of iNOS were from Biosource (Ratingen, Germany) and used under the following PCR conditions: 95° C./5 min; 95° C./45 sec, 60° C./45 sec, 72° C./45 sec for 40 cycles; 72° C./10 min. For control, β-actin was amplified in parallel using primers from BD Biosciences Clontech. […] Data were collected during annealing steps and were further analysed by using the i-Cycler iQ Optical system software (BioRad). All samples were analysed in duplicates and data are expressed as amount of mRNA in arbitrary units.

[2] = system: L1CAM transfected PT45-P1 cells; experiment: Caspase-3/-7 assay in L1CAM transfected PT45-P1 cells; conditions: inhibitor 10 μmol/L, 20 μg/mL etoposide 24 hours
Description: (§4) PT45-P1res cells (a,b) or PT45-P1 cells transfected with L1CAM or an empty control vector (mock) (c,d) were left untreated (w/o) or were either treated with Tapi-0, Tapi-1, GM6001 or L685,458 (each 10 μmol/L) for 24 hours. (a,c) Cellular lysates were subjected to western blotting using either the antibody clone UJ127 from Acris detecting only full-length L1CAM or the pcytL1 antibody detecting also the cytoplasmic part of L1CAM. HSP90 was detected as a control for equal protein load. (b,d) Thirty minutes after treatment with the respective inhibitor, cells were either left untreated or treated with 20 μg/mL etoposide for 24 hours. Then, cells were analysed for caspase-3/-7 activity expressed as n-fold induction of caspase-3/-7 activity of basal. Means±SD from three independent experiments are shown. * indicates p<0.05.
as §1, §2

L1CAM [3] = experiment: L1CAM cleavage by western blotting in L1CAM transfected PT45-P1 cells; conditions: inhibitor 10 μmol/L, 24 hours
Description: as §4, §3

[4] = Induction of apoptosis, Nicoletti staining, in HEK293-hL1 cells; conditions: human; L1-expressing HEK293; C2-ceramide 40 μM or staurosporine 2 μM, 24 h, serum-free, Nicoletti staining; read-out: cells still viable after treatment
Description: (§5) Cells (1×10^5 cells per well) were cultured in duplicate in 6 well culture plates and, after washing once with PBS, incubated for the indicated timepoints with or without apoptotic stimuli in serum-free medium. Staurosporine (2 μM), C2-ceramide (40 μM) or cisplatin (17 μM) were used as apoptotic reagents. For hypoxia studies, cells were incubated for different time points under hypoxic conditions (1% O2) using a Reming Bioinstruments chamber and oxygen regulator (Reming Bioinstruments, Redfield, N.Y.).
(§6) For quantification of DNA fragmentation, supernatants were centrifuged at 200×g. The cell pellet was washed once in PBS (pH 7.4) and lysed in a hypotonic lysis buffer (0.1% sodium citrate, 0.1% Triton X-100, 50 μg/ml propidiumiodite) at 4° C. overnight. The nuclei were then analyzed for DNA content by flow cytometry. The staining of cells for flow cytometry with mAbs and PE-conjugated secondary antibodies has been described. Cells were analysed with a FACScan using Cellquest or FlowJo software from Becton Dickinson (Heidelberg, Germany).

[5] = Induction of apoptosis, Nicoletti staining, in HEK293 cells; conditions: human; wild-type (parental) HEK293; C2-ceramide 40 μM or staurosporine 2 μM, 24 h, serum-free, Nicoletti staining; read-out: cells still viable after treatment
Description: as §5, §6

NO release = experiment: NO-assay in supernatants of PT45-P1res cells; conditions: 250 ng/mL IL1-RA 24 hours
Description: PT45-P1res cells were transfected with a control siRNA or with a L1CAM specific siRNA. (a) RNA from transfected PT45-P1res cells was subjected to RT and subsequent Real-time PCR using primers specific for iNOS. In parallel, a Real-time PCR was conducted for β-actin, which was used as a control. Results from one representative out of three experiments are shown. Data are expressed as amount of mRNA in arbitrary units. Each sample was measured in duplicates. (b) siRNA transfected cells (16 h) were either left untreated or were treated with 250 ng/mL IL1RA for 24 hours. Then, supernatants were cleared and subjected to a commercial NO assay. The amount of NO was normalized to equal cell number which was determined in parallel (expressed as μmol NO/10^5 cells). (c) siRNA transfected cells (16 h) were either left untreated or were treated with 250 ng/mL IL1-RA and 20 μg/mL etoposide, either alone or in combination for 24 hours. Then, cells were analysed for caspase-3/-7 activity expressed as n-fold induced caspase-3/-7 activity of basal. Means±SD from three independent experiments are shown. * indicates p<0.05.
Cells were seeded for transfection and cultured as described above. […] NO secreted into cell culture supernatants was quantified using the Total nitric oxide (NO) calorimetric assay (R&D Systems). […] Concentrations of measured NO were normalized to the cell numbers determined in parallel.

CC(=O)NC(C(=O)O)C(C)(C)SN=O (racemic) [SNAP, S-Nitroso-N-acetyl-D,L-penicillamine]
increased caspase activity during L1CAM knock-down (PT45-P1res cells; 200 μmol/L SNAP with 20 μg/mL etoposide, 24 hours): completely reversed the increased caspase activity

CNC(=O)[C@H](Cc1c[nH]c2ccccc12)NC(=O)[C@@H](CC(=O)NO)CC(C)C [GM6001]
apoptosis induction after etoposide treatment (caspase-3/-7) (PT45-P1res cells): did not significantly affect apoptosis induction after etoposide treatment
L1CAM expression (full-length 220 kDa and 32 kD fragment) (L1CAM [1]): neither of the inhibitors changed L1 CAM expression
apoptosis inducing effect of etoposide (caspase-3/-7) [2]: nor affect the apoptosis inducing effect of etoposide
expression of full-length L1CAM and level of the 32 kD fragment (L1CAM [3]): did neither influence the expression of full-length L1CAM nor increased the level of the 32 kD fragment

CC(C)C[C@H](NC(=O)[C@H](Cc1ccccc1)C[C@@H](O)[C@H](Cc1ccccc1)NC(=O)OC(C)(C)C)C(=O)N[C@@H](Cc1ccccc1)C(N)=O [L685,458]
apoptosis induction after etoposide treatment (caspase-3/-7) (PT45-P1res cells): did not significantly affect apoptosis induction after etoposide treatment
L1CAM expression (full-length 220 kDa and 32 kD fragment) (L1CAM [1]): neither of the inhibitors changed L1 CAM expression
apoptosis inducing effect of etoposide (caspase-3/-7) [2]: nor affect the apoptosis inducing effect of etoposide
expression of full-length L1CAM and level of the 32 kD fragment (L1CAM [3]): did neither influence the expression of full-length L1CAM nor increased the level of the 32 kD fragment

CC(C)C[C@H](CC(=O)NO)C(=O)N[C@@H](Cc1ccc2ccccc2c1)C(=O)N[C@@H](C)C(=O)NCCN [Tapi-1]
apoptosis induction after etoposide treatment (caspase-3/-7) (PT45-P1res cells): did not significantly affect apoptosis induction after etoposide treatment
L1CAM expression (full-length 220 kDa and 32 kD fragment) (L1CAM [1]): neither of the inhibitors changed L1 CAM expression
apoptosis inducing effect of etoposide (caspase-3/-7) [2]: nor affect the apoptosis inducing effect of etoposide
expression of full-length L1CAM and level of the 32 kD fragment (L1CAM [3]): did neither influence the expression of full-length L1CAM nor increased the level of the 32 kD fragment

CN[C@@H]1C[C@H]2O[C@@](C)([C@@H]1OC)n1c3ccccc3c3c4c(c5c6ccccc6n2c5c31)C(=O)NC4 [staurosporine]
viability at 24 h, 2 μM [4]: 77%
viability at 24 h, 2 μM [5]: 59%

IL1-RA: Interleukin 1 receptor antagonist from R&D Systems
etoposide induced caspase activation (PT45-P1res cells; 250 ng/mL IL1-RA, control transfected cells): increased
L1CAM expression (mRNA and protein) (L1CAM [1]; 250 ng/mL IL1-RA, 6 or 24 hours): reduced L1CAM expression
NO levels (NO release; cells with L1CAM knock down): no further reducing effect
NO levels (NO release; control siRNA transfected cells): could be decreased
